# Test system: women with insomnia secondary to perimenopause or menopause
# Assay: Clinical study: number of nocturnal awakenings due to hot flashes
# Format: in vivo
# Details: for Number of Nocturnal Awakenings due to Hot Flashes, Observed Value, Mean (SD) / Number of Nocturnal Awakenings due to Hot Flashes, Observed Value, 25th Percentile / Number of Nocturnal Awakenings due to Hot Flashes, Observed Value, 75th Percentile / Number of Nocturnal Awakenings due to Hot Flashes, Observed Value, Maximum / Number of Nocturnal Awakenings due to Hot Flashes, Observed Value, Median / Number of Nocturnal Awakenings due to Hot Flashes, Observed Value, Minimum / Number of Nocturnal Awakenings due to Hot Flashes, Change from Baseline, 25th Percentile / Number of Nocturnal Awakenings due to Hot Flashes, Change from Baseline, 75th Percentile / Number of Nocturnal Awakenings due to Hot Flashes, Change from Baseline, Maximum / Number of Nocturnal Awakenings due to Hot Flashes, Change from Baseline, Mean (SD) / Number of Nocturnal Awakenings due to Hot Flashes, Change from Baseline, Median / Number of Nocturnal Awakenings due to Hot Flashes, Change from Baseline, Minimum / Number of Nocturnal Awakenings due to Hot Flashes, Change from Baseline, Least Squares Means (SE) [3] / Number of Nocturnal Awakenings due to Hot Flashes, Observed Value, Least Squares Means (SE) [2]: ITT; for Number of Nocturnal Awakenings due to Hot Flashes, Change from Baseline, Least Squares Means (SE) [3]: ANCOVA; for Number of Nocturnal Awakenings due to Hot Flashes, Observed Value, Least Squares Means (SE) [2]: ANOVA
# Protocol: The study was aimed at observing efficacy of eszopiclone 3 mg compared to placebo in the treatment of insomnia secondary to perimenopause or menopause. The study was a multicenter, randomized, double-blind, placebo-controlled, parallel-group study. […] The primary method of analysis compared the post-randomization results between the two treatment groups.
# Subjects were women with insomnia secondary to perimenopause or menopause. Subjects were perimenopausal or menopausal and had insomnia symptoms including ≧45 minutes sleep latency (SL) and total sleep time (TST) ≦6 hours. Perimenopausal/menopausal symptoms predated the onset of sleep disturbance symptoms. The patient population was predominately Caucasian (77.2%). The mean age was 49, with a range of 40-60.
# A total of 410 subjects were randomized. Among them, 201 received 3 mg of eszopiclone (ESZ) nightly (at bedtime) for four weeks and 209 received matching placebo (PBO).
structure (smiles),measurement,setting,value
"CN1CCN(C(=O)O[C@H]2c3nccnc3C(=O)N2c2ccc(Cl)cn2)CC1 [Eszopiclone, (+)6-(5-chloropyrid-2-yl)-5-(4-methylpiperazin-1-yl)carbonyloxy-7-oxo-6,7-dihydro-5H-pyrrolo[3-4-b]pyrazine]","Number of Nocturnal Awakenings due to Hot Flashes, Observed Value, Mean (SD)","Baseline (average of all pre-DB observations), 3 mg group",1.3 (1.2)
same,"Number of Nocturnal Awakenings due to Hot Flashes, Observed Value, 25th Percentile","Baseline, 3 mg group",0.3
same,"Number of Nocturnal Awakenings due to Hot Flashes, Observed Value, 75th Percentile","Baseline, 3 mg group",2.0
same,"Number of Nocturnal Awakenings due to Hot Flashes, Observed Value, Maximum","Baseline, 3 mg group",6.0
same,"Number of Nocturnal Awakenings due to Hot Flashes, Observed Value, Median","Baseline, 3 mg group",1.0
same,"Number of Nocturnal Awakenings due to Hot Flashes, Observed Value, Minimum","Baseline, 3 mg group",0.0
same,"Number of Nocturnal Awakenings due to Hot Flashes, Change from Baseline, 25th Percentile","DB Average, 3 mg nightly",−1.1
same,"Number of Nocturnal Awakenings due to Hot Flashes, Change from Baseline, 75th Percentile","DB Average, 3 mg nightly",0.0
same,"Number of Nocturnal Awakenings due to Hot Flashes, Change from Baseline, Maximum","DB Average, 3 mg nightly",1.5
same,"Number of Nocturnal Awakenings due to Hot Flashes, Change from Baseline, Mean (SD)","DB Average, 3 mg nightly",−0.7 (1.0)
same,"Number of Nocturnal Awakenings due to Hot Flashes, Change from Baseline, Median","DB Average, 3 mg nightly",−0.5
same,"Number of Nocturnal Awakenings due to Hot Flashes, Change from Baseline, Minimum","DB Average, 3 mg nightly",−6.0
same,"Number of Nocturnal Awakenings due to Hot Flashes, Observed Value, 25th Percentile","DB Average, 3 mg nightly",0.0
same,"Number of Nocturnal Awakenings due to Hot Flashes, Observed Value, 75th Percentile","DB Average, 3 mg nightly",0.9
same,"Number of Nocturnal Awakenings due to Hot Flashes, Observed Value, Maximum","DB Average, 3 mg nightly",2.7
same,"Number of Nocturnal Awakenings due to Hot Flashes, Observed Value, Mean (SD)","DB Average, 3 mg nightly",0.5 (0.6)
same,"Number of Nocturnal Awakenings due to Hot Flashes, Observed Value, Median","DB Average, 3 mg nightly",0.2
same,"Number of Nocturnal Awakenings due to Hot Flashes, Observed Value, Minimum","DB Average, 3 mg nightly",0.0
same,"Number of Nocturnal Awakenings due to Hot Flashes, Change from Baseline, Least Squares Means (SE) [3]","DB Average, 3 mg nightly",−0.7 (0.1)
same,"Number of Nocturnal Awakenings due to Hot Flashes, Observed Value, Least Squares Means (SE) [2]","DB Average, 3 mg nightly",0.5 (0.1)
same,"nocturnal awakenings due to hot flashes, LS means","Week 1, 3 mg nightly",0.3 per night
same,"Number of Nocturnal Awakenings due to Hot Flashes, Change from Baseline, 25th Percentile","Week 1, 3 mg nightly",−1.2
same,"Number of Nocturnal Awakenings due to Hot Flashes, Change from Baseline, 75th Percentile","Week 1, 3 mg nightly",0.0
same,"Number of Nocturnal Awakenings due to Hot Flashes, Change from Baseline, Maximum","Week 1, 3 mg nightly",0.8
same,"Number of Nocturnal Awakenings due to Hot Flashes, Change from Baseline, Mean (SD)","Week 1, 3 mg nightly",−0.7 (1.0)
same,"Number of Nocturnal Awakenings due to Hot Flashes, Change from Baseline, Median","Week 1, 3 mg nightly",−0.5
same,"Number of Nocturnal Awakenings due to Hot Flashes, Change from Baseline, Minimum","Week 1, 3 mg nightly",−6.0
same,"Number of Nocturnal Awakenings due to Hot Flashes, Observed Value, 25th Percentile","Week 1, 3 mg nightly",0.0
same,"Number of Nocturnal Awakenings due to Hot Flashes, Observed Value, 75th Percentile","Week 1, 3 mg nightly",1.0
same,"Number of Nocturnal Awakenings due to Hot Flashes, Observed Value, Maximum","Week 1, 3 mg nightly",3.0
same,"Number of Nocturnal Awakenings due to Hot Flashes, Observed Value, Mean (SD)","Week 1, 3 mg nightly",0.5 (0.7)
same,"Number of Nocturnal Awakenings due to Hot Flashes, Observed Value, Median","Week 1, 3 mg nightly",0.2
same,"Number of Nocturnal Awakenings due to Hot Flashes, Observed Value, Minimum","Week 1, 3 mg nightly",0.0
same,"Number of Nocturnal Awakenings due to Hot Flashes, Change from Baseline, Least Squares Means (SE) [3]","Week 1, 3 mg nightly",−0.7 (0.1)
same,"Number of Nocturnal Awakenings due to Hot Flashes, Observed Value, Least Squares Means (SE) [2]","Week 1, 3 mg nightly",0.5 (0.1)
same,"Number of Nocturnal Awakenings due to Hot Flashes, Change from Baseline, 25th Percentile","Week 2, 3 mg nightly",−1.0
same,"Number of Nocturnal Awakenings due to Hot Flashes, Change from Baseline, 75th Percentile","Week 2, 3 mg nightly",0.0
same,"Number of Nocturnal Awakenings due to Hot Flashes, Change from Baseline, Maximum","Week 2, 3 mg nightly",2.0
same,"Number of Nocturnal Awakenings due to Hot Flashes, Change from Baseline, Mean (SD)","Week 2, 3 mg nightly",−0.7 (1.0)
same,"Number of Nocturnal Awakenings due to Hot Flashes, Change from Baseline, Median","Week 2, 3 mg nightly",−0.6
same,"Number of Nocturnal Awakenings due to Hot Flashes, Change from Baseline, Minimum","Week 2, 3 mg nightly",−6.0
same,"Number of Nocturnal Awakenings due to Hot Flashes, Observed Value, 25th Percentile","Week 2, 3 mg nightly",0.0
same,"Number of Nocturnal Awakenings due to Hot Flashes, Observed Value, 75th Percentile","Week 2, 3 mg nightly",1.0
same,"Number of Nocturnal Awakenings due to Hot Flashes, Observed Value, Maximum","Week 2, 3 mg nightly",3.0
same,"Number of Nocturnal Awakenings due to Hot Flashes, Observed Value, Mean (SD)","Week 2, 3 mg nightly",0.5 (0.7)
same,"Number of Nocturnal Awakenings due to Hot Flashes, Observed Value, Median","Week 2, 3 mg nightly",0.0
same,"Number of Nocturnal Awakenings due to Hot Flashes, Observed Value, Minimum","Week 2, 3 mg nightly",0.0
same,"Number of Nocturnal Awakenings due to Hot Flashes, Change from Baseline, Least Squares Means (SE) [3]","Week 2, 3 mg nightly",−0.6 (0.1)
same,"Number of Nocturnal Awakenings due to Hot Flashes, Observed Value, Least Squares Means (SE) [2]","Week 2, 3 mg nightly",0.5 (0.1)
same,"Number of Nocturnal Awakenings due to Hot Flashes, Change from Baseline, 25th Percentile","Week 3, 3 mg nightly",−1.0
same,"Number of Nocturnal Awakenings due to Hot Flashes, Change from Baseline, 75th Percentile","Week 3, 3 mg nightly",0.0
same,"Number of Nocturnal Awakenings due to Hot Flashes, Change from Baseline, Maximum","Week 3, 3 mg nightly",1.5
